From patent US20180179198A1, “TRICYCLIC MODULATORS OF TNF SIGNALING” (AbbVie Inc., priority 2015, published 2018)

These molecules were tested against TNFα trimer (Homo sapiens, UniProt P01375) (assay: TNFα FP Competitive Binding Assay). Settings: TNFα FP competitive binding assay; class symbols A/B/C; read-out: TNF IC50.
How it was run: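 Fluorescence polarization displacement: 20 nM TNFα trimer (60 nM protein) with 1 nM fluorescein-labelled bis-isoquinoline probe in HEPES/NaCl/EDTA/Triton X-100 buffer. 12-point 1:3 compound series, top final 338 μM (3.4% DMSO) or 100 μM (2.0% DMSO); 18-24 h at 37 °C, then 1 h rt before background-subtracted mP read; variable-slope curve fit.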

Sequence of TNFα trimer (P01375 77-233 limits assumed): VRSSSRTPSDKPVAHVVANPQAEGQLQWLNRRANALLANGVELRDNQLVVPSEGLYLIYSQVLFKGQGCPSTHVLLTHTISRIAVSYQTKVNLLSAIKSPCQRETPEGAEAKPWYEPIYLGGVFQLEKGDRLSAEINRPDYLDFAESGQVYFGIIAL

SMILES	IC50 [nM]
COc1ccccc1C1CCc2nc3ccc(-c4cnc(N5CCN6C(=O)NCC6C5)nc4)nc3n21 (stereo not shown) [AD.2]	< 1000
OC1CC(Nc2ncc(-c3ccc4nc5n(c4n3)C3(CCOc4ccccc43)COC5)cn2)C1 (stereo not shown) [BB.6]	1000 to 10000
c1ccc2c(c1)OCCC21COCc2nc3ccc(-c4cnc(N5CCCNCC5)nc4)nc3n21 (stereo not shown) [BA.4]	1000 to 10000
CC(O)c1ncc(-c2ccc3nc4n(c3n2)[C@@H](c2ccccc2)CC4)cn1 (stereo partly shown) [AL.1]	1000 to 10000
c1ccc([C@H]2CCc3nc4ccc(-c5ccnc(OC6CCCC6)c5)nc4n32)cc1 [AS.2]	1000 to 10000
COc1ccccc1C1CCCc2nc3ccc(-c4cnc(N5CCC6(CC5)CC(O)C6)nc4)cn3c21 (stereo not shown) [AJ.8]	< 1000
N#C[C@@H]1CC[C@@H](Oc2cc(-c3ccc4nc5n(c4n3)[C@@H](c3ccccc3)CC5)ccn2)C1 [AS.7]	1000 to 10000
COc1ccccc1[C@H]1CCc2nc3ccc(-c4cnc(N5CCN6C(=O)NC[C@H]6C5)nc4)nc3n21 [AO.2]	< 1000
OC[C@@H]1CCCN1c1ncc(-c2ccc3nc4n(c3n2)[C@@H](c2ccccc2)CC4)cn1 [AK.1]	1000 to 10000
OC1CCN(c2ncc(-c3ccc4nc5n(c4n3)C(c3cccc(F)c3)COC5)cn2)CC1 (stereo not shown) [AI.1]	< 1000
CN1CC[C@@H](Oc2cc(-c3ccc4nc5n(c4n3)[C@@H](c3ccccc3)CC5)ccn2)C1 [AQ.6]	1000 to 10000
OC1CCCN(c2ncc(-c3ccc4nc5n(c4n3)C3(COC5)COc4ccccc43)cn2)C1 (stereo not shown) [AU.4]	< 1000
CC1(c2ccccc2)CCc2nc3ccc(-c4cnc(N5CCN6C(=O)NCC6C5)nc4)nc3n21 (stereo not shown) [AH.9]	< 1000
O=C1NC[C@@H]2CN(c3ncc(-c4ccc5nc6n(c5n4)C4(CCc5ccccc54)COC6)cn3)CCN12 (stereo partly shown) [AV.2]	< 1000
c1ccc([C@H]2CCc3nc4ccc(-c5cnn(C6CCOCC6)c5)nc4n32)cc1 [AW.6]	1000 to 10000
c1ccc([C@H]2CCc3nc4ccc(-c5ccnc(OC6CCCNC6)c5)nc4n32)cc1 (stereo partly shown) [AT.1]	1000 to 10000
O=C1NCC2CN(c3ncc(-c4ccc5nc6n(c5n4)C(c4cccc(F)c4)COC6)cn3)CCN12 (stereo not shown) [AH.8]	< 1000

Other lines, results leading:

IC50 [nM]	SMILES
< 1000	c1ccc([C@H]2CCCc3nc4ccc(-c5cnc(N6CCOCC6)nc5)cc4n32)cc1 [Y.1]
1000 to 10000	CC(=O)N1CCN(c2ccc(-c3ccc4nc5n(c4c3)C(c3ccccc3)COC5)cn2)CC1 (stereo not shown) [T.13]
1000 to 10000	Cc1ccc(-c2ccc3nc4n(c3c2)C(c2ccccc2)COC4)cn1 (stereo not shown) [T.18]
< 1000	O=C1NCC2CN(c3ncc(-c4ccc5nc6n(c5c4)C(c4cccc(F)c4)COC6)cn3)CCN12 (stereo not shown) [V.1]
< 1000	COc1ccccc1[C@H]1COCc2nc3ccc(-c4cnc(C(C)(C)O)nc4)cc3n21 [Z.1]
1000 to 10000	Fc1cccc(C2COCc3nc4ccc(-c5cnc(N6CCOCC6)nc5)cc4n32)c1 (stereo not shown) [U.2, 4-(3-Fluorophenyl)-7-(2-morpholinopyrimidin-5-yl)-3,4-dihydro-1H-benzo[4,5]imidazo[2,1-c][1,4]oxazine]
< 1000	CC(C)(O)c1ncc(-c2ccc3nc4n(c3c2)C(c2c(Cl)cccc2Cl)COC4)cn1 (stereo not shown) [Z.2]
1000 to 10000	CS(=O)(=O)c1ccc(-c2ccc3nc4n(c3c2)C(c2ccccc2)COC4)cn1 (stereo not shown) [T.2]

Same assay, conditions: Table BM; read-out: TNF IC50

IC50 [nM]	SMILES
1000 to 10000	C[C@H]1CN(c2ncc(-c3ccc4nc5n(c4n3)[C@]3(COC5)COc4ccccc43)cn2)CCN1C(=O)CO [BM.2]

Same assay, conditions: Table BQ; read-out: TNF IC50

IC50 [nM]	SMILES
1000 to 10000	CC(C)(N)c1ncc(-c2ccc3nc4n(c3n2)[C@@H](c2ccccc2)CC4)cn1 [BQ.1]

Same assay, conditions: fluorescence polarization competition; 20 nM TNFα trimer, 1 nM OregonGreen488 probe; read-out: TNF IC50 (TNFα FP binding assay IC50)

SMILES	IC50 [nM]
CCN(C)C(=O)c1cccc(-c2ccc3nc4n(c3c2)C(c2ccccc2)CC4)c1 (stereo not shown) [A.44]	10000 to 100000
Cc1cncc(-c2ccc3nc4n(c3c2)C(c2ccccc2)CC4)c1 (stereo not shown) [A.25]	1000 to 10000
CN(C)C(=O)c1ccc(-c2ccc3nc4n(c3c2)C(c2ccccc2)CC4)cc1 (stereo not shown) [A.10]	< 1000
COc1cncc(-c2ccc3nc4n(c3c2)C(c2ccccc2)CC4)c1 (stereo not shown) [A.38]	1000 to 10000
CC(C)(O)c1ncc(-c2ccc3nc4n(c3c2)C(C2CCCCC2)CC4)cn1 (stereo not shown) [Example 17, 2-(5-(1-Cyclohexyl-2,3-dihydro-H-benzo[d]pyrrolo[1,2-a]imidazol-7-yl)pyrimidin-2-yl)propan-2-ol]	< 1000
COc1ccccc1C1CCCc2nc3ccc(-c4cnc(C(C)(C)O)nc4)cn3c21 (stereo not shown) [Example 16, 2-(5-(9-(2-Methoxyphenyl)-6,7,8,9-tetrahydrobenzo[4,5]imidazo[1,2-a]pyridin-2-yl)pyrimidin-2-yl)propan-2-ol]	< 1000
CCOC(=O)CNc1ncc(-c2ccc3nc4c(n3c2)C(c2ccccc2OC)CCC4)cn1 (stereo not shown) [Example 7, Ethyl 2-[[5-[9-(2-methoxyphenyl)-6,7,8,9-tetrahydropyrido[1,2-a]benzimidazol-2-yl]pyrimidin-2-yl]amino]acetate]	< 1000

The next lines start with the values.

IC50 [nM]	SMILES
< 1000	CC(C)(O)c1ncc(-c2ccc3nc4n(c3n2)C2(CCc3ccccc32)COC4)cn1 (stereo not shown) [Example 68, 2-(5-(2,3-Dihydro-6′H,8′H-spiro[indene-1,9′-pyrido[3′,2′:4,5]imidazo[2,1-c][1,4]oxazin]-2′-yl)pyrimidin-2-yl)propan-2-ol]
1000 to 10000	CC(O)C1CCN(c2ncc(-c3ccc4nc5n(c4c3)[C@@H](c3ccccc3)COC5)cn2)CC1 (stereo partly shown) [G.7]
< 1000	O=C1NCC2CN(c3ncc(-c4ccc5nc6n(c5n4)C(c4ccccc4)COC6)cn3)CCN12 (stereo in doubt) [Example 58, (8aS)-7-(5-(9-Phenyl-8,9-dihydro-6H-pyrido[3′,2′:4,5]imidazo[2,1-c][1,4]oxazin-2-yl)pyrimidin-2-yl)hexahydroimidazo[1,5-a]pyrazin-3(2H)-one]
10000 to 100000	COc1cc(OC)cc(C2(O)CCCCc3nc4ccc(-c5cnc(N6CCOCC6)nc5)cn4c32)c1 (stereo not shown) [J.9]
< 1000	CC(=O)N1CCN(c2ncc(-c3ccc4nc5n(c4n3)[C@@H](c3cccc(CO)c3)CC5)cn2)C[C@H]1C [Example 44, 1-((R)-4-(5-((R)-8-(3-(Hydroxymethyl)phenyl)-7,8-dihydro-6H-pyrrolo[2′,1′:2,3]imidazo[4,5-b]pyridin-2-yl)pyrimidin-2-yl)-2-methylpiperazin-1-yl)ethanone]
1000 to 10000	CC(C)(O)c1ncc(-c2ccc3nc4n(c3n2)C2(COC4)CC(O)c3ccccc32)cn1 (stereo not shown) [Example 81, 2′-(2-(2-Hydroxypropan-2-yl)pyrimidin-5-yl)-2,3,6′,8′-tetrahydrospiro[indene-1,9′-pyrido[3′,2′:4,5]imidazo[2,1-c][1,4]oxazin]-3-ol]
< 1000	NC1CC2(CCN(c3ncc(-c4ccc5nc6n(c5c4)[C@@H](c4ccccc4)COC6)cn3)CC2)C1 [Example 36, (S)-7-(5-(4-Phenyl-3,4-dihydro-1H-benzo[4,5]imidazo[2,1-c][1,4]oxazin-7-yl)pyrimidin-2-yl)-7-azaspiro[3.5]nonan-2-amine]
< 1000	c1ccc(C2COCc3nc4ccc(-c5cnc(N6CCOCC6)nc5)cc4n32)cc1 (stereo not shown) [Example 19, 7-(2-Morpholinopyrimidin-5-yl)-4-phenyl-3,4-dihydro-H-benzo[4,5]imidazo[2,1-c][1,4]oxazine]
1000 to 10000	OC1CCN(c2ncc(-c3ccc4nc5n(c4n3)C(c3ccccc3)C3CC5C3)cn2)CC1 (stereo not shown) [Example 64, 1-(5-(9-Phenyl-6,7,8,9-tetrahydro-6,8-methanoimidazo[1,2-a:5,4-b′]dipyridin-2-yl)pyrimidin-2-yl)piperidin-4-ol]
10000 to 100000	c1ccc([C@H]2COCc3nc4ccc(-c5cnc(N6CC(N7CCOCC7)C6)nc5)cc4n32)cc1 [G.17]
< 1000	Cc1ccc(C)c(C2CCc3nc4ccc(-c5cnc(N6CCNC(=O)C6)nc5)nc4n32)c1 (stereo not shown) [N.2]
< 1000	O=C1NC[C@H]2CN(c3ncc(-c4ccc5nc6n(c5c4)[C@@H](c4ccccc4)COC6)cn3)CCN12 [Example 27, (S)-7-(5-((S)-4-Phenyl-3,4-dihydro-1H-benzo[4,5]imidazo[2,1-c][1,4]oxazin-7-yl)pyrimidin-2-yl)hexahydroimidazo[1,5-a]pyrazin-3(2)-one]
< 1000	Cc1ccc(C)c(C2CCc3nc4ccc(-c5cnc(N6CCN7C(=O)NCC7C6)nc5)nc4n32)c1 (stereo not shown) [N.4]
< 1000	c1ccc([C@H]2COCc3nc4ccc(-c5cnc(N6CCC7(CC6)COC7)nc5)cc4n32)cc1 [G.8]
< 1000	c1ccc(C2COCc3nc4ccc(-c5cnc(N6CCOCC6)nc5)cc4n32)cc1 (single isomer, unassigned) [Example 21]
10000 to 100000	COc1cccc(C2(O)CCCCc3nc4ccc(-c5cnc(N6CCOCC6)nc5)cn4c32)c1 (stereo not shown) [J.10]
< 1000	O=S1(=O)CCN(c2ncc(-c3ccc4nc5n(c4c3)[C@@H](c3ccccc3)CC5)cn2)CC1 [F.4]
< 1000	C[C@H]1CN(c2ncc(-c3ccc4nc5n(c4n3)C3(COC5)COc4ccccc43)cn2)CCN1C(=O)CO (stereo partly drawn) [Example 67, 1-((2S)-4-(5-(2H,6′H,8′H-Spiro[benzofuran-3,9′-pyrido[3′,2′:4,5]imidazo[2,1-c][1,4]oxazin]-2′-yl)pyrimidin-2-yl)-2-methylpiperazin-1-yl)-2-hydroxyethan-1-one]
1000 to 10000	Cc1cccc(C2(O)CCCCc3nc4ccc(-c5cnc(N6CCOCC6)nc5)cn4c32)c1 (stereo not shown) [J.3]
10000 to 100000	CC(C)(O)c1ncc(-c2ccc3nc4n(c3n2)[C@@H](c2ccccc2)[C@@H]2C[C@H]4O2)cn1 [Example 70, 2-(5-((6R,8S,9S)-9-Phenyl-6,7,8,9-tetrahydro-6,8-epoxyimidazo[1,2-a:5,4-b′]dipyridin-2-yl)pyrimidin-2-yl)propan-2-ol]
1000 to 10000	CC(C)(O)c1ncc(-c2ccc3nc4n(c3c2)C(c2ccccn2)CC4)cn1 (stereo not shown) [Example 28, 2-(5-(1-(Pyridin-2-yl)-2,3-dihydro-1H-benzo[d]pyrrolo[1,2-a]imidazol-7-yl)pyrimidin-2-yl)propan-2-ol]
